Source: DBAASP
Converted amounts (≈) assume the structure as drawn. “And” between values parts separate entries of the source, which are not always exact repeats. Identical values can stand only once.

Key:
Test in all cases: ≥ marks a high value that may be exact or a test limit, other limits are often not marked, values filed in µg/mL are converted to µM
[1] = test system: Batrachochytrium dendrobatidis
[2] = test system: Escherichia coli ATCC 25922
[3] = test system: Staphylococcus aureus FDA 209P
[4] = test system: Acinetobacter baumannii ATCC 19606
[5] = test system: Candida krusei ATCC 20029
[6] = test system: Cryptococcus gattii ATCC 32608
[7] = test system: Cryptococcus neoformans ATCC 24067
[8] = test system: Pseudomonas aeruginosa ATCC 27853
[9] = test system: Staphylococcus aureus ATCC 33591
[10] = test system: Staphylococcus epidermidis ATCC 12228
[11] = test system: Candida albicans ATCC 64550
[12] = test system: Staphylococcus aureus ATCC 25923
[13] = test system: Bacillus subtilis ATCC 6633
[14] = test system: Escherichia coli ATCC 10536
[15] = test system: Pseudomonas aeruginosa ATCC BAA-427
[16] = test system: Bacillus subtilis KCTC 1918
[17] = test system: Candida albicans TIMM 1768
[18] = test system: Pseudomonas aeruginosa KCTC 1637
[19] = test system: Salmonella typhimurium KCTC 1926
[20] = test system: Staphylococcus epidermidis KCTC 3096
[21] = test system: Trichosporon beigelii KCTC 7707
[22] = test system: Bacillus megaterium
[23] = test system: Escherichia coli ML-35
[24] = test system: Salmonella enterica subsp. enterica serovar Typhimurium ATCC 14028
[25] = test system: Mycobacterium tuberculosis H37Rv
[26] = test system: Escherichia coli ATCC 8739
[27] = test system: Pseudomonas aeruginosa ATCC 9027
[28] = test system: Staphylococcus aureus ATCC 6538
[29] = test system: Escherichia coli BW25113 ΔsbmA
[30] = test system: Escherichia coli BW25113
[31] = test system: Escherichia coli HB101
[32] = test system: Escherichia coli TOP 10
[33] = test system: Serratia marcescens ATCC 8100

With `CC[C@H](C)[C@H](NC(=O)CN)C(=O)N[C@@H](Cc1ccccc1)C(=O)N[C@@H](CO)C(=O)N[C@@H](CCCCN)C(=O)N[C@@H](CC(C)C)C(=O)N[C@@H](C)C(=O)NCC(=O)N[C@@H](CCCCN)C(=O)N[C@@H](CCCCN)C(=O)N[C@H](C(=O)N[C@@H](CCCCN)C(=O)N[C@@H](CC(N)=O)C(=O)N[C@@H](CC(C)C)C(=O)N[C@@H](CC(C)C)C(=O)N[C@H](C(=O)N[C@@H](CO)C(=O)NCC(=O)N[C@@H](CC(C)C)C(=O)N[C@@H](CCCCN)C(=O)N[C@@H](CC(N)=O)C(=O)N[C@H](C(=O)NCC(=O)N[C@@H](CCCCN)C(=O)N[C@@H](CCC(=O)O)C(=O)N[C@H](C(=O)NCC(=O)N[C@@H](CCSC)C(=O)N[C@@H](CC(=O)O)C(=O)N[C@H](C(=O)N[C@H](C(=O)N[C@@H](CCCN=C(N)N)C(=O)N[C@H](C(=O)NCC(=O)N[C@H](C(=O)N[C@@H](CC(=O)O)C(=O)N[C@H](C(=O)N[C@@H](C)C(=O)NCC(=O)N[C@H]1CSSC[C@@H](C(=O)O)NC(=O)[C@H](CCC(=O)O)NC(=O)CNC(=O)[C@H](CCCCN)NC(=O)[C@H]([C@@H](C)CC)NC(=O)[C@H](CCCCN)NC1=O)[C@@H](C)CC)[C@@H](C)CC)[C@@H](C)O)C(C)C)C(C)C)C(C)C)C(C)C)[C@@H](C)CC)[C@@H](C)CC` [GIFSKLAGKKIKNLLISGLKNVGKEVGMDVVRTGIDIAGCKIKGEC] the MIC [1] was 25 µM and 12.5 µM, the MIC [2] was 2.8 µM (≈ 13.4 µg/mL) and the MIC [3] was 4.3 µM (≈ 20.6 µg/mL).
For `CC[C@H](C)[C@H](N)C(=O)N[C@@H](Cc1c[nH]c2ccccc12)C(=O)N[C@@H](CC(C)C)C(=O)N[C@H](C(=O)N[C@@H](C)C(=O)N[C@@H](CC(C)C)C(=O)N[C@@H](CCCCN)C(=O)N[C@@H](Cc1ccccc1)C(=O)N[C@@H](CC(C)C)C(=O)NCC(=O)N[C@@H](CCCCN)C(=O)N[C@@H](CC(N)=O)C(=O)N[C@@H](CC(C)C)C(=O)NCC(=O)N[C@@H](CCCCN)C(N)=O)[C@@H](C)O` [IWLTALKFLGKNLGK], the MIC [4] was 5.27 µM (≈ 8.97 µg/mL), the MIC [5] was at least 37.6 µM and the MIC [6] was 3.73 µM (≈ 6.35 µg/mL). It also gave an MIC [7] of 14.9 µM (≈ 25.4 µg/mL), an MIC [2] of 14.9 µM (≈ 25.4 µg/mL) and an MIC [8] of 37.6 µM (≈ 64 µg/mL). The MIC [9] was 4.7 µM (≈ 8 µg/mL) and the MIC [10] was 4.18 µM (≈ 7.11 µg/mL).
In the case of `C[C@H](NC(=O)[C@H](Cc1c[nH]c2ccccc12)NC(=O)[C@H](CCCN=C(N)N)NC(=O)[C@@H](N)Cc1ccc(O)cc1)C(=O)N[C@@H](CCCN=C(N)N)C(=O)N[C@@H](Cc1c[nH]c2ccccc12)C(=O)N[C@@H](Cc1c[nH]c2ccccc12)C(=O)N[C@@H](CCCN=C(N)N)C(=O)N[C@@H](CCCN=C(N)N)C(N)=O` [YRWARWWRR], the MIC [11] was at least 100 µM, the MIC [2] was 6.97 µM and 5.22 µM and the MIC [8] was 3.48 µM (≈ 5 µg/mL). It also gave an MIC [12] of 3.48 µM (≈ 5 µg/mL).
`CC[C@H](C)[C@H](N)C(=O)N[C@@H](CC(C)C)C(=O)NCC(=O)N[C@@H](CCCCN)C(=O)N[C@H](C(=O)N[C@@H](Cc1c[nH]c2ccccc12)C(=O)N[C@@H](CCC(=O)O)C(=O)NCC(=O)N[C@@H](CCCCN)C(=O)N[C@@H](CCCCN)C(=O)N[C@@H](CO)C(=O)N[C@@H](CC(C)C)C(=O)N[C@@H](Cc1ccccc1)C(N)=O)[C@@H](C)CC` [ILGKIWEGKKSLF] gave an MIC [13] of 2 µM (≈ 3.04 µg/mL), an MIC [14] of 4 µM (≈ 6.07 µg/mL) and an MIC [2] of 8 µM (≈ 12.1 µg/mL). It also gave an MIC [15] of 8 µM (≈ 12.1 µg/mL) and an MIC [12] of 8 µM (≈ 12.1 µg/mL).
`CC[C@H](C)[C@H](NC(=O)CNC(=O)[C@@H](NC(=O)[C@H](CCCCN)NC(=O)[C@H](CCCCN)NC(=O)[C@H](Cc1ccccc1)NC(=O)[C@H](CC(C)C)NC(=O)[C@H](CCCCN)NC(=O)[C@H](Cc1c[nH]c2ccccc12)NC(=O)[C@H](CCCCN)NC(=O)[C@H](CCCCN)NC(=O)[C@H](CCCCN)NC(=O)[C@@H](N)CCCCN)[C@@H](C)CC)C(=O)NCC(=O)N[C@@H](CCCCN)C(=O)N[C@@H](Cc1ccccc1)C(=O)N[C@@H](CC(C)C)C(N)=O` [KKKKWKLFKKIGIGKFL] was tested, and the MIC [16] was 3.12 µM (≈ 6.52 µg/mL), the MIC [17] was 12.5 µM (≈ 26.1 µg/mL) and the MIC [18] was 1.56 µM (≈ 3.26 µg/mL). For the same compound, the MIC [19] was 0.19 µM (≈ 0.397 µg/mL), the MIC [20] was 3.12 µM (≈ 6.52 µg/mL) and the MIC [21] was 6.25 µM (≈ 13.1 µg/mL).
`CC[C@H](C)[C@H](NC(=O)[C@H](CCCCN)NC(=O)[C@H](CCCCN)NC(=O)[C@H](CC(C)C)NC(=O)[C@H](CCCCN)NC(=O)[C@H](CCC(=O)O)NC(=O)[C@H](CCCCN)NC(=O)[C@@H](NC(=O)[C@H](CCCCN)NC(=O)[C@H](CC(N)=O)NC(=O)[C@H](CCCN=C(N)N)NC(=O)[C@H](C)NC(=O)[C@H](CCCCN)NC(=O)[C@H](CCCN=C(N)N)NC(=O)[C@H](CC(C)C)NC(=O)[C@H](CCCN=C(N)N)NC(=O)[C@H](CCCCN)NC(=O)[C@H](CCCN=C(N)N)NC(=O)[C@H](CC(C)C)NC(=O)CN)[C@@H](C)CC)C(=O)O` [GLRKRLRKARNKIKEKLKKI] showed an MIC [22] of 8 µM (≈ 19.8 µg/mL), an MIC [2] of 4 µM (≈ 9.91 µg/mL) and an MIC [23] of 4 µM (≈ 9.91 µg/mL). It also gave an MIC [8] of 1 µM (≈ 2.48 µg/mL), an MIC [24] of 16 µM (≈ 39.6 µg/mL) and an MIC [12] of 8 µM (≈ 19.8 µg/mL).
With `CC[C@H](C)[C@H](NC(=O)[C@@H]1CCCN1C(=O)[C@H](CCCN=C(N)N)NC(=O)CNC(=O)[C@H](C)NC(=O)[C@H](CCCN=C(N)N)NC(=O)[C@H](Cc1cnc[nH]1)NC(=O)[C@H](C)NC(=O)[C@H](C)N)C(=O)N[C@@H](Cc1cnc[nH]1)C(=O)N[C@@H](CC(=O)O)C(=O)N[C@@H](C)C(=O)NCC(=O)N[C@H](C(=O)N[C@H](C(=O)N[C@@H](CCCCN)C(=O)N[C@@H](CCC(N)=O)C(=O)O)C(C)C)C(C)C` [AAHRAGRPIHDAGVVKQ] the MIC [25] was at least 112 µM.
Work on `NCCCC[C@H](NC(=O)[C@H](Cc1c[nH]c2ccccc12)NC(=O)[C@H](Cc1ccccc1)NC(=O)[C@@H](N)Cc1c[nH]c2ccccc12)C(=O)N[C@@H](Cc1c[nH]c2ccccc12)C(=O)N[C@@H](Cc1c[nH]c2ccccc12)C(=O)N[C@@H](CCCN=C(N)N)C(=O)N[C@@H](CCCN=C(N)N)C(=O)N[C@@H](CCCN=C(N)N)C(=O)N[C@@H](CCCN=C(N)N)C(=O)N[C@@H](CCCN=C(N)N)C(N)=O` [WFWKWWRRRRR] yielded an MIC [11] of at least 100 µM, an MIC [26] of 3.1 µM (≈ 5.64 µg/mL) and an MIC [27] of 4.6 µM (≈ 8.36 µg/mL). It also gave an MIC [28] of 1.7 µM (≈ 3.09 µg/mL).
With `CC[C@H](C)[C@H](NC(=O)[C@H](CCCN=C(N)N)NC(=O)[C@@H](N)CCCN=C(N)N)C(=O)N[C@@H](CCCN=C(N)N)C(=O)N1CCC[C@H]1C(=O)N[C@@H](CCCN=C(N)N)C(=O)N1CCC[C@H]1C(=O)N1CCC[C@H]1C(=O)N[C@@H](CCCN=C(N)N)C(=O)N[C@@H](CC(C)C)C(=O)N1CCC[C@H]1C(=O)N[C@@H](CCCN=C(N)N)C(=O)N1CCC[C@H]1C(=O)N[C@@H](CCCN=C(N)N)C(=O)N1CCC[C@H]1C(=O)N[C@@H](CCCN=C(N)N)C(=O)N1CCC[C@H]1C(=O)N[C@@H](CC(C)C)C(=O)N1CCC[C@H]1C(=O)N[C@@H](Cc1ccccc1)C(=O)N1CCC[C@H]1C(=O)N[C@@H](CCCN=C(N)N)C(=O)N1CCC[C@H]1C(=O)O` [RRIRPRPPRLPRPRPRPLPFPRP] the MIC [29] was at least 52.1 µM, the MIC [30] was 7.4 µM (≈ 21.3 µg/mL) and the MIC [31] was 0.5 µM (≈ 1.44 µg/mL). The MIC [23] was 1 µM (≈ 2.88 µg/mL), the MIC [32] was 4.6 µM (≈ 13.3 µg/mL) and the MIC [24] was 2 µM (≈ 5.76 µg/mL). It also gave an MIC [33] of 4 µM (≈ 11.5 µg/mL) and an MIC [12] of over 128 µM.
